Assay results published in patent US12139498B1, “Positive allosteric modulators of the muscarinic acetylcholine receptor M4” (Vanderbilt University, priority 2023, dated 2024).
pEC50: −log10 of the molar value.

How the values were obtained:
[1] = test system: male Sprague-Dawley rats; experiment: Amphetamine-induced hyperlocomotion in rats; settings: 10 mg/kg p.o., amphetamine 0.25 mg/kg s.c., p<0.001
[2] = molecular target: T1, Human M4 (Homo sapiens, UniProt P08173); experiment: M4 cell-based functional assay (calcium mobilization); set-up: expressed in transfected cells; settings: for Emax at 30 µM: % ACh maximum at 30 μM; for pEC50: CHO-K1 hM4-Gqi5 cells, calcium flux, increase in EC20 acetylcholine response
T1 sequence (P08173 1-479): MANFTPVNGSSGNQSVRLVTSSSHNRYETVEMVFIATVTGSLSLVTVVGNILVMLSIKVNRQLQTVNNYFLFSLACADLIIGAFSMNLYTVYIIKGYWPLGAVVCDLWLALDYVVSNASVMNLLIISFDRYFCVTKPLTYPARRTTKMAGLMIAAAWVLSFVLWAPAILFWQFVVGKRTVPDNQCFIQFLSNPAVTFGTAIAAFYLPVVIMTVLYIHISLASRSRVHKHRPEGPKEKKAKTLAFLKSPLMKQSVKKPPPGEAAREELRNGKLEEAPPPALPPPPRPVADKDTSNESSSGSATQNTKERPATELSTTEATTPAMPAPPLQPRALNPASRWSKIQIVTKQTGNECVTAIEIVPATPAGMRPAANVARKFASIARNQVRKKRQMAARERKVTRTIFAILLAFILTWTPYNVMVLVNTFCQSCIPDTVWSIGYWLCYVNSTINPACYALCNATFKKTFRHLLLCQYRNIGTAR
Procedure, shortened: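 CHO-K1 cells stably co-expressing hM4 and chimeric Gqi5, loaded with Fluo-4-AM (1.15 μM final, 45 min, 37° C). Compound added ~140 s before EC20 then EC80 acetylcholine; calcium flux by kinetic fluorescence (ex 480/em 530 nm), expressed as fold over basal and normalized to maximal ACh response (1 mM).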

In the case of `Cc1nnc2sc(C(=O)NCc3ccc(S(=O)(=O)C(F)(F)F)cc3)c(N)c2c1C` [VU0467154, reference compound], the “percent reversal of amphetamine-induced hyperlocomotion” value [1] was 52.7%.

With `Cc1cc2nccnc2nc1N1CCc2nc(-c3ccnn3C)sc2C1` [Compound 59, 2-(1-methyl-1H-pyrazol-5-yl)-5-(7-methylpyrido[2,3-b]pyrazin-6-yl)-4,5,6,7-tetrahydrothiazolo[5,4-c]pyridine] the Emax at 30 µM [2] was 54% and the pEC50 [2] was 5.56.

Work on `Cc1cc2nc(C(=O)N3CC(C)(F)C3)cc(=O)n2nc1N1CCc2nc(Br)sc2C1` [Compound 45, 7-(2-bromo-6,7-dihydrothiazolo[5,4-c]pyridin-5(4H)-yl)-2-(3-fluoro-3-methylazetidine-1-carbonyl)-8-methyl-4H-pyrimido[1,2-b]pyridazin-4-one] yielded an Emax at 30 µM [2] of 85% and a pEC50 [2] of 6.12.

Compound `Cc1c(C#N)nnc(N2CCc3nc(Nc4ccc(F)cc4)sc3C2)c1C` [Compound 7, 6-(2-((4-fluorophenyl)amino)-6,7-dihydrothiazolo[5,4-c]pyridin-5(4H)-yl)-4,5-dimethylpyridazine-3-carbonitrile] has an Emax at 30 µM [2] of 49% and a pEC50 [2] of 5.89.

`COc1nc2c(s1)CN(c1nnc(C#N)c(C)c1C)CC2` [Compound 8, 6-(2-methoxy-6,7-dihydrothiazolo[5,4-c]pyridin-5(4H)-yl)-4,5-dimethylpyridazine-3-carbonitrile] was tested, and the Emax at 30 µM [2] was 79% and the pEC50 [2] was 6.14.

Work on `[2H]C([2H])([2H])c1nc2c(s1)CN(c1ncc(C#N)cc1C)CC2` [Compound 20, 5-methyl-6-(2-(methyl-d3)-6,7-dihydrothiazolo[5,4-c]pyridin-5(4H)-yl)nicotinonitrile] yielded an Emax at 30 µM [2] of 101% and a pEC50 [2] of 6.61.

Compound `Cc1cc2nc(C(=O)N3CC4(COC4)C3)cc(=O)n2nc1N1CCc2nc(Br)sc2C1` [Compound 47, 7-(2-bromo-6,7-dihydrothiazolo[5,4-c]pyridin-5(4H)-yl)-8-methyl-2-(2-oxa-6-azaspiro[3.3]heptane-6-carbonyl)-4H-pyrimido[1,2-b]pyridazin-4-one] has an Emax at 30 µM [2] of 66% and a pEC50 [2] of 5.71.

`Cc1ccc2ncnc(N3CCc4nc(Br)sc4C3)c2c1` [Compound 30, 2-bromo-5-(6-methylquinazolin-4-yl)-4,5,6,7-tetrahydrothiazolo[5,4-c]pyridine] was tested, and the Emax at 30 µM [2] was 91% and the pEC50 [2] was 6.83.
